We go through 1 compound from US20220401414A1, “TREATMENT AND PREVENTION OF A NEURODEGENERATIVE DISORDER” (Inflazome Limited, priority 2019, published 2022).

Common to all, as to type: in vivo, C57BL6 mice
Assay [1] relates to 6-OHDA mouse model of Parkinson's disease. The assay is described as follows: Studies C and D: amphetamine-induced ipsilateral rotations in the 6-OHDA mouse model. The note with it: day 21 after 6-OHDA (12 μg). The method, then:
(§1) To determine the oral efficacy of the compound of formula (I) in the 6-OHDA mouse model of Parkinson's disease.
(§2) 8-week-old C57BL6 male mice (obtained from ARC, Perth, Australia) were housed under a 12-h light cycle in a SPF climate-controlled facility with food and water provided ad libitum for two weeks prior to study initiation. For treatment with the compound of formula (I), mice were dosed via oral gavage. Ten (10) mice in each group were dosed at 3 or 1 mg/kg, starting the day before (24 hr prior) stereotaxic surgery, and then QD until sacrifice.
6-OHDA (Sigma) was prepared immediately prior to surgeries. A sterile saline (0.9%) solution containing ascorbic acid (0.2%) was used as the vehicle to dissolve 6-OHDA. […] In order to inject a final concentration of 12 μg into the right striatum, a working stock of 6 mg/ml was made injecting a final volume of 2 μl.
Mice were anaesthetized using ketamine (100 mg/kg, i.p.) and xylazine (10 mg/kg i.p.)
anesthesia and were placed into a stereotactic frame with nose and ear bars specially adapted for mice. The lesion was performed using a 5 μl Hamilton syringe to deliver either vehicle or 6-OHDA (12 μg) at the following coordinates relative to bregma: AP: −1.2 mm; ML: −1.7 mm; DV: 3.5 mm into the right dorsal striatum according to the stereotaxic atlas (“The mouse brain in stereotaxic coordinates” by Paxinos and Franklin, 1997). After drilling a 1 mm burr-hole in the skull, a 2 μl volume of solution was infused at the target site at the rate of 0.5 μl per minute. The needle was held in place for at least 5 minutes after injection to minimize retrograde flow along the needle tract. Mice were administered a subcutaneous injection of sterile Ringer's solution to is facilitate recovery and were placed on a heat-pad until complete recovery from anesthesia.
Amphetamine-induced ipsilateral rotations were performed at day 21 post-surgery. Mice were injected with 2 mg/kg of D-amphetamine and placed in circular glass bowls.
After an acclimatization period of five minutes, the net ipsilateral rotations over ten minutes were recorded and counted. Quantitation was performed from recorded videos by an investigator blinded to the treatment groups.
The aim of study D was to compare the neuroprotective efficacy of the compound of formula (I) with MCC95o in the mouse unilateral 6-OHDA model at 3 mg/kg. The amphetamine-induced ipsilateral rotations and striatal dopamine (DA) levels were assessed, using a protocol identical to that used for study C, with ten (10) mice in each group being dosed at 3 mg/kg for each drug, starting the day before (24 hr prior) stereotaxic surgery, and then daily throughout until sacrifice.

For assay [2], the system named is PFF-Synuclein model of Parkinson's disease. The assay is described as follows: Study H: rotarod test in the PFF-Synuclein mouse model. The note with it: 4, 6, 8 and 10 months. An excerpt: To determine the oral efficacy of the compound of formula (I) in a chronic progressive model of Parkinson's disease (PD), the preformed fibrils (PFF) mouse model, using a prophylactic and therapeutic dosing schedule.
8-week-old C57BL6 male mice (obtained from ARC, Perth, Australia) were housed under a 12-h light cycle in a SPF climate-controlled facility with food and water provided ad libitum for two weeks prior to study initiation. The compound of formula (I) (or water alone for control animals) was administrated to mice in drinking water at 0.3 mg/ml. Animals were separated into the groups described in Table 9, with ten animals initiated in each cohort. […]
Recombinant human a-synuclein was obtained from rPeptide Inc., and in vitro fibril generation was performed with a final concentration of 2 mg/ml in phosphate-buffered saline (PBS) by incubation at 37° C. with agitation in an orbital mixer (400 rpm) for 7 days with daily cycles of sonication used to break down fibrillar aggregates as outlined in previously published reports (see Luk et al., Science, 2012, vol. 338(6109), pp. 949-53; and Zhang et al., Methods Mol. Biol., 2019, vol. 1948, pp. 45-57, which are incorporated in their entirety herein by reference). The generation of fibrillar α-synuclein species was confirmed by transmission electron microscopy and Thioflavin T fluorescence prior to use. […]

For assay [3], the system named is 6-OHDA mouse model of Parkinson's disease. As to the kind of experiment: Studies C and D: LC-MS/MS quantification of striatal dopamine and metabolites in the 6-OHDA mouse model. The note with it: 28 days after the 6-OHDA lesion. The method, then:
as §1, §2
6-OHDA (Sigma) was prepared immediately prior to surgeries. A sterile saline (0.9%) solution containing ascorbic acid (0.2%) was used as the vehicle to dissolve 6-OHDA. […]
Mice were sacrificed 1 week after the amphetamine test (day 28) and striatal tissue was micro-dissected, weighed and snap-frozen at −80° C. […] Striatal dopamine (DA) and its metabolites (DOPAC and HVA) were quantified in their stable derivative 3o form in the presence of internal standard 3,4-dihydroxybenzylamine (DHBA) using highly sensitive liquid chromatography-tandem mass spectrometry (LC-MS/MS) as described previously (Park et al., Biol. Pharm. Bull., 2013, vol. 36, pp. 252-8). […] For quantitation, one transition per analyte was monitored and two transitions per analyte were monitored for qualitative purposes. […]

SMILES strings stand for the structures.

For `CC(C)n1ccc(S(=O)(=O)NC(=O)Nc2c3c(cc4c2CCC4)CCC3)n1` [compound of formula (I)], the amphetamine-induced ipsilateral rotations entry in assay [1] (Study C, 3 mg/kg oral gavage QD from 24 hr before surgery) is recorded as “significant protective effect”; in assay [1] (Study D, 3 mg/kg oral daily) it was “fewer ipsilateral rotations compared to MCC950”. Moreover, the “reduction in amphetamine-induced rotations relative to the 6-OHDA untreated group” value in assay [1] (Study D, 3 mg/kg oral daily) stood at 75%. For the same compound, the “performance on the rotarod” value in assay [2] (prophylactic: 0.3 mg/ml in drinking water from 24 h before PFF injection) and in assay [2] (therapeutic: 0.3 mg/ml in drinking water from 4 months after PFF injection) was “improved performance on the rotarod” throughout. The “striatal dopamine (with metabolites DOPAC and HVA)” value in assay [3] (Study C, 3 mg/kg oral QD) is on record as “significantly protected against the loss of dopamine”. Moreover, in assay [3] (Study D, 3 mg/kg oral daily), the striatal dopamine result is recorded as “significantly protected against the loss of dopamine with improved efficacy compared to MCC950”.
